# Test results from the OligoGym collection.
# Oligonucleotides are given in HELM: sugar(base)linkage, 5' to 3'; d 2'-deoxyribose, r ribose, m 2'-O-methylribose, p phosphate. ss, as = sense and antisense strand
# Target: UBE2N
# Assay: reporter assay of Huesken 2005
# Details: siRNA
# Also: test concentration or dose not given here.
row,Substance,normalised inhibition (eCFP-eYFP dual reporter) [%]
1,RNA1{r(A)p.r(U)p.r(C)p.r(C)p.r(G)p.r(C)p.r(A)p.r(C)p.r(A)p.r(G)p.r(U)p.r(U)p.r(C)p.r(U)p.r(G)p.r(C)p.r(U)p.r(A)p.r(U)p.d(T)p.d(T)}|RNA2{r(A)p.r(U)p.r(A)p.r(G)p.r(C)p.r(A)p.r(G)p.r(A)p.r(A)p.r(C)p.r(U)p.r(G)p.r(U)p.r(G)p.r(C)p.r(G)p.r(G)p.r(A)p.r(U)p.d(C)p.d(T)}$$$RNA1{StrandType:ss}|RNA2{StrandType:as}$,54.2
2,RNA1{r(A)p.r(A)p.r(G)p.r(C)p.r(C)p.r(G)p.r(A)p.r(A)p.r(C)p.r(C)p.r(A)p.r(G)p.r(A)p.r(U)p.r(G)p.r(A)p.r(G)p.r(A)p.r(G)p.d(T)p.d(T)}|RNA2{r(C)p.r(U)p.r(C)p.r(U)p.r(C)p.r(A)p.r(U)p.r(C)p.r(U)p.r(G)p.r(G)p.r(U)p.r(U)p.r(C)p.r(G)p.r(G)p.r(C)p.r(U)p.r(U)p.d(T)p.d(G)}$$$RNA1{StrandType:ss}|RNA2{StrandType:as}$,88.3
3,RNA1{r(A)p.r(C)p.r(G)p.r(A)p.r(A)p.r(G)p.r(C)p.r(C)p.r(C)p.r(A)p.r(A)p.r(G)p.r(C)p.r(C)p.r(A)p.r(U)p.r(A)p.r(G)p.r(A)p.d(T)p.d(T)}|RNA2{r(U)p.r(C)p.r(U)p.r(A)p.r(U)p.r(G)p.r(G)p.r(C)p.r(U)p.r(U)p.r(G)p.r(G)p.r(G)p.r(C)p.r(U)p.r(U)p.r(C)p.r(G)p.r(U)p.d(T)p.d(G)}$$$RNA1{StrandType:ss}|RNA2{StrandType:as}$,77.5
4,RNA1{r(G)p.r(U)p.r(G)p.r(G)p.r(U)p.r(C)p.r(C)p.r(C)p.r(C)p.r(A)p.r(G)p.r(C)p.r(A)p.r(C)p.r(U)p.r(G)p.r(C)p.r(A)p.r(G)p.d(T)p.d(T)}|RNA2{r(C)p.r(U)p.r(G)p.r(C)p.r(A)p.r(G)p.r(U)p.r(G)p.r(C)p.r(U)p.r(G)p.r(G)p.r(G)p.r(G)p.r(A)p.r(C)p.r(C)p.r(A)p.r(C)p.d(T)p.d(T)}$$$RNA1{StrandType:ss}|RNA2{StrandType:as}$,59.4
5,RNA1{r(U)p.r(U)p.r(G)p.r(C)p.r(U)p.r(G)p.r(G)p.r(C)p.r(C)p.r(C)p.r(U)p.r(C)p.r(A)p.r(G)p.r(G)p.r(A)p.r(U)p.r(U)p.r(C)p.d(T)p.d(T)}|RNA2{r(G)p.r(A)p.r(A)p.r(U)p.r(C)p.r(C)p.r(U)p.r(G)p.r(A)p.r(G)p.r(G)p.r(G)p.r(C)p.r(C)p.r(A)p.r(G)p.r(C)p.r(A)p.r(A)p.d(T)p.d(G)}$$$RNA1{StrandType:ss}|RNA2{StrandType:as}$,50.2
6,RNA1{r(A)p.r(U)p.r(U)p.r(U)p.r(A)p.r(U)p.r(C)p.r(A)p.r(U)p.r(C)p.r(C)p.r(U)p.r(A)p.r(A)p.r(U)p.r(G)p.r(U)p.r(A)p.r(G)p.d(T)p.d(T)}|RNA2{r(C)p.r(U)p.r(A)p.r(C)p.r(A)p.r(U)p.r(U)p.r(A)p.r(G)p.r(G)p.r(A)p.r(U)p.r(G)p.r(A)p.r(U)p.r(A)p.r(A)p.r(A)p.r(U)p.d(T)p.d(T)}$$$RNA1{StrandType:ss}|RNA2{StrandType:as}$,49.2
7,RNA1{r(C)p.r(A)p.r(A)p.r(C)p.r(G)p.r(A)p.r(A)p.r(G)p.r(C)p.r(C)p.r(C)p.r(A)p.r(A)p.r(G)p.r(C)p.r(C)p.r(A)p.r(U)p.r(A)p.d(T)p.d(T)}|RNA2{r(U)p.r(A)p.r(U)p.r(G)p.r(G)p.r(C)p.r(U)p.r(U)p.r(G)p.r(G)p.r(G)p.r(C)p.r(U)p.r(U)p.r(C)p.r(G)p.r(U)p.r(U)p.r(G)p.d(G)p.d(T)}$$$RNA1{StrandType:ss}|RNA2{StrandType:as}$,94
8,RNA1{r(A)p.r(A)p.r(G)p.r(C)p.r(C)p.r(A)p.r(U)p.r(A)p.r(G)p.r(A)p.r(A)p.r(A)p.r(C)p.r(A)p.r(G)p.r(C)p.r(U)p.r(A)p.r(G)p.d(T)p.d(T)}|RNA2{r(C)p.r(U)p.r(A)p.r(G)p.r(C)p.r(U)p.r(G)p.r(U)p.r(U)p.r(U)p.r(C)p.r(U)p.r(A)p.r(U)p.r(G)p.r(G)p.r(C)p.r(U)p.r(U)p.d(G)p.d(G)}$$$RNA1{StrandType:ss}|RNA2{StrandType:as}$,90.4
9,RNA1{r(A)p.r(G)p.r(A)p.r(A)p.r(C)p.r(C)p.r(A)p.r(G)p.r(U)p.r(U)p.r(C)p.r(C)p.r(U)p.r(G)p.r(G)p.r(C)p.r(A)p.r(U)p.r(C)p.d(T)p.d(T)}|RNA2{r(G)p.r(A)p.r(U)p.r(G)p.r(C)p.r(C)p.r(A)p.r(G)p.r(G)p.r(A)p.r(A)p.r(C)p.r(U)p.r(G)p.r(G)p.r(U)p.r(U)p.r(C)p.r(U)p.d(G)p.d(C)}$$$RNA1{StrandType:ss}|RNA2{StrandType:as}$,60.7
10,RNA1{r(A)p.r(C)p.r(G)p.r(C)p.r(C)p.r(C)p.r(G)p.r(U)p.r(U)p.r(A)p.r(U)p.r(U)p.r(U)p.r(U)p.r(C)p.r(A)p.r(U)p.r(G)p.r(U)p.d(T)p.d(T)}|RNA2{r(A)p.r(C)p.r(A)p.r(U)p.r(G)p.r(A)p.r(A)p.r(A)p.r(A)p.r(U)p.r(A)p.r(A)p.r(C)p.r(G)p.r(G)p.r(G)p.r(C)p.r(G)p.r(U)p.d(T)p.d(G)}$$$RNA1{StrandType:ss}|RNA2{StrandType:as}$,62.4
11,RNA1{r(A)p.r(C)p.r(C)p.r(C)p.r(A)p.r(A)p.r(U)p.r(G)p.r(G)p.r(C)p.r(A)p.r(G)p.r(C)p.r(C)p.r(C)p.r(C)p.r(U)p.r(A)p.r(A)p.d(T)p.d(T)}|RNA2{r(U)p.r(U)p.r(A)p.r(G)p.r(G)p.r(G)p.r(G)p.r(C)p.r(U)p.r(G)p.r(C)p.r(C)p.r(A)p.r(U)p.r(U)p.r(G)p.r(G)p.r(G)p.r(U)p.d(A)p.d(T)}$$$RNA1{StrandType:ss}|RNA2{StrandType:as}$,64
12,RNA1{r(A)p.r(A)p.r(A)p.r(U)p.r(G)p.r(A)p.r(U)p.r(G)p.r(U)p.r(A)p.r(G)p.r(C)p.r(G)p.r(G)p.r(A)p.r(G)p.r(C)p.r(A)p.r(G)p.d(T)p.d(T)}|RNA2{r(C)p.r(U)p.r(G)p.r(C)p.r(U)p.r(C)p.r(C)p.r(G)p.r(C)p.r(U)p.r(A)p.r(C)p.r(A)p.r(U)p.r(C)p.r(A)p.r(U)p.r(U)p.r(U)p.d(G)p.d(C)}$$$RNA1{StrandType:ss}|RNA2{StrandType:as}$,43.2
13,RNA1{r(C)p.r(A)p.r(U)p.r(A)p.r(G)p.r(A)p.r(A)p.r(A)p.r(C)p.r(A)p.r(G)p.r(C)p.r(U)p.r(A)p.r(G)p.r(A)p.r(G)p.r(C)p.r(A)p.d(T)p.d(T)}|RNA2{r(U)p.r(G)p.r(C)p.r(U)p.r(C)p.r(U)p.r(A)p.r(G)p.r(C)p.r(U)p.r(G)p.r(U)p.r(U)p.r(U)p.r(C)p.r(U)p.r(A)p.r(U)p.r(G)p.d(G)p.d(C)}$$$RNA1{StrandType:ss}|RNA2{StrandType:as}$,95.3
14,RNA1{r(A)p.r(U)p.r(C)p.r(A)p.r(U)p.r(C)p.r(C)p.r(U)p.r(A)p.r(A)p.r(U)p.r(G)p.r(U)p.r(A)p.r(G)p.r(A)p.r(C)p.r(A)p.r(A)p.d(T)p.d(T)}|RNA2{r(U)p.r(U)p.r(G)p.r(U)p.r(C)p.r(U)p.r(A)p.r(C)p.r(A)p.r(U)p.r(U)p.r(A)p.r(G)p.r(G)p.r(A)p.r(U)p.r(G)p.r(A)p.r(U)p.d(A)p.d(A)}$$$RNA1{StrandType:ss}|RNA2{StrandType:as}$,46.4
15,RNA1{r(C)p.r(G)p.r(A)p.r(A)p.r(G)p.r(C)p.r(C)p.r(C)p.r(A)p.r(A)p.r(G)p.r(C)p.r(C)p.r(A)p.r(U)p.r(A)p.r(G)p.r(A)p.r(A)p.d(T)p.d(T)}|RNA2{r(U)p.r(U)p.r(C)p.r(U)p.r(A)p.r(U)p.r(G)p.r(G)p.r(C)p.r(U)p.r(U)p.r(G)p.r(G)p.r(G)p.r(C)p.r(U)p.r(U)p.r(C)p.r(G)p.d(T)p.d(T)}$$$RNA1{StrandType:ss}|RNA2{StrandType:as}$,84.1
16,RNA1{r(C)p.r(A)p.r(G)p.r(U)p.r(G)p.r(G)p.r(A)p.r(A)p.r(G)p.r(A)p.r(C)p.r(C)p.r(A)p.r(A)p.r(C)p.r(G)p.r(A)p.r(A)p.r(G)p.d(T)p.d(T)}|RNA2{r(C)p.r(U)p.r(U)p.r(C)p.r(G)p.r(U)p.r(U)p.r(G)p.r(G)p.r(U)p.r(C)p.r(U)p.r(U)p.r(C)p.r(C)p.r(A)p.r(C)p.r(U)p.r(G)p.d(C)p.d(T)}$$$RNA1{StrandType:ss}|RNA2{StrandType:as}$,78
17,RNA1{r(A)p.r(G)p.r(A)p.r(U)p.r(A)p.r(U)p.r(U)p.r(U)p.r(U)p.r(G)p.r(A)p.r(A)p.r(A)p.r(G)p.r(A)p.r(U)p.r(A)p.r(A)p.r(G)p.d(T)p.d(T)}|RNA2{r(C)p.r(U)p.r(U)p.r(A)p.r(U)p.r(C)p.r(U)p.r(U)p.r(U)p.r(C)p.r(A)p.r(A)p.r(A)p.r(A)p.r(U)p.r(A)p.r(U)p.r(C)p.r(U)p.d(A)p.d(G)}$$$RNA1{StrandType:ss}|RNA2{StrandType:as}$,57.1
18,RNA1{r(C)p.r(U)p.r(A)p.r(A)p.r(A)p.r(G)p.r(U)p.r(A)p.r(C)p.r(G)p.r(U)p.r(U)p.r(U)p.r(C)p.r(A)p.r(U)p.r(G)p.r(A)p.r(C)p.d(T)p.d(T)}|RNA2{r(G)p.r(U)p.r(C)p.r(A)p.r(U)p.r(G)p.r(A)p.r(A)p.r(A)p.r(C)p.r(G)p.r(U)p.r(A)p.r(C)p.r(U)p.r(U)p.r(U)p.r(A)p.r(G)p.d(G)p.d(G)}$$$RNA1{StrandType:ss}|RNA2{StrandType:as}$,79.5
19,RNA1{r(G)p.r(A)p.r(U)p.r(C)p.r(C)p.r(A)p.r(U)p.r(U)p.r(A)p.r(G)p.r(C)p.r(A)p.r(A)p.r(A)p.r(U)p.r(G)p.r(A)p.r(U)p.r(G)p.d(T)p.d(T)}|RNA2{r(C)p.r(A)p.r(U)p.r(C)p.r(A)p.r(U)p.r(U)p.r(U)p.r(G)p.r(C)p.r(U)p.r(A)p.r(A)p.r(U)p.r(G)p.r(G)p.r(A)p.r(U)p.r(C)p.d(A)p.d(T)}$$$RNA1{StrandType:ss}|RNA2{StrandType:as}$,61.3
20,RNA1{r(U)p.r(C)p.r(C)p.r(A)p.r(G)p.r(A)p.r(U)p.r(G)p.r(A)p.r(U)p.r(C)p.r(C)p.r(A)p.r(U)p.r(U)p.r(A)p.r(G)p.r(C)p.r(A)p.d(T)p.d(T)}|RNA2{r(U)p.r(G)p.r(C)p.r(U)p.r(A)p.r(A)p.r(U)p.r(G)p.r(G)p.r(A)p.r(U)p.r(C)p.r(A)p.r(U)p.r(C)p.r(U)p.r(G)p.r(G)p.r(A)p.d(T)p.d(T)}$$$RNA1{StrandType:ss}|RNA2{StrandType:as}$,85.9
